From PubChem BioAssay (NCI)
Several values for one entry are separate records, joined by “and”; a condition that tells them apart may be missing. Equal values may be shown once.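 Cultured in 96-well plates, cells were exposed to test compound for 48 hours across five concentrations. At the GI50, growth is halved. At the TGI there is no net growth.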

The compounds below were run on NCI-H226 lung (assay: NCI tumour cell line growth inhibition, 48 h).

Structure (SMILES)	TGI	GI50
CC(=O)c1c2c(c3ccccc3c1O)O[C@@H]1OCC[C@H]21	> 100 µM	
C[C@]12CC[C@H](O)CC1=CC[C@@H]1[C@@H]2CC[C@]2(C)C(=N/N)/C(=N\O)C[C@@H]12	> 100 µM	
CC(=O)Oc1cccc2c1C(=O)CCCC2	> 100 µM	
O=C(c1ccccn1)C1(N2CCCCC2)CCCCC1	> 100 µM	
CCN(CC)C(=S)N/N=C/c1cc([N+](=O)[O-])ccc1O	12.6 µM	
Cc1ccc(NC(=O)c2ccc(OP(=O)(O)Nc3ccc(C)cc3)cc2)cc1	> 100 µM	
Cc1ccc(NC(=O)CC2Sc3ccccc3NC2=O)cc1C (centres undefined)	> 100 µM	
Cc1ccnc(NS(=O)(=O)c2ccc(N=[N+]=[N-])cc2)n1	> 100 µM	
Cc1ccccc1C(=N)c1ccccc1Cc1cccc2ccccc12	45 µM	
CCC(=O)NC(Nc1cc(C)on1)(C(F)(F)F)C(F)(F)F	> 100 µM	
Cc1ccccc1OC(C)C(=O)NN1C(=O)CSC1c1ccccc1 (centres undefined)	> 100 µM	
O=C1C=C[C@@H](COC2OC(CO)C(O)C(O)C2O)O1 (some centres undefined)	48.9 µM and 96.9 µM	17.6 µM
CC(C)=CCC[C@@H](C)c1c(O)c(O)c(C)c2nccnc12	37.1 µM	
O=C(OCc1ccccc1)N1CCNCCN(C(=O)OCc2ccccc2)CCNCC1	> 100 µM	
COC(=O)C1=C(C(=O)OC)SC(=C2SCSC3=C2SC(C(=O)OC)=C(C(=O)OC)C32SC3=C(CCCC3)S2)S1	> 100 µM	
COc1nncc2[nH]c(-c3ccccc3)cc12	> 100 µM	
O=S(=O)(c1ccccc1)c1cccc2c1NCCC2	> 100 µM	
COP(=O)(OC)C1=c2c(C)noc2=C2C=COC2C1=O (centres undefined)	> 100 µM	
CCOC(=O)N1CCN(Cc2cc(=O)n3ccc(C)cc3n2)CC1	> 100 µM	
COc1cccc(C2SC(N)=Nc3c2c(C)nn3C(=O)c2ccccc2O)c1 (centres undefined)	> 7.78 µM	
N#CC(NCc1cccc(CNC(C#N)c2ccccc2)c1)c1ccccc1 (centres undefined)	> 100 µM	

The compounds below were run on P388/ADR leukemia (assay: NCI tumour cell line growth inhibition, 48 h).

Structure (SMILES)	TGI
COc1ccc2[nH]cc(/C=C(/C)c3ccncc3)c2c1	22.6 µM
COC(=O)[C@@H](O)[C@](O)(CCC(C)C)C(=O)O[C@@H]1C(OC)=C[C@]23CCCN2CCc2cc4c(cc2[C@H]13)OCO4	11 µM
COc1ccc2cc1Oc1ccc(cc1)C[C@H]1c3cc(c(OC)cc3CCN1C)Oc1c(O)c(OC)cc3c1[C@H](C2)N(C)CC3	109 µM
O=C1C=C[C@@H](COC2OC(CO)C(O)C(O)C2O)O1 (some centres undefined)	1.82 µM

What follows are compounds tested on SNB-19 CNS (assay: NCI tumour cell line growth inhibition, 48 h).

Structure (SMILES)	GI50	TGI
COc1ccc2[nH]cc(/C=C(/C)c3ccncc3)c2c1	15.5 µM	> 100 µM
COC(=O)[C@@H](O)[C@](O)(CCC(C)C)C(=O)O[C@@H]1C(OC)=C[C@]23CCCN2CCc2cc4c(cc2[C@H]13)OCO4		2.67 µM
CCCCCC1=CC(=O)C1(Cl)Cl		> 67.3 µM
CC(=O)N1C(C(=O)NC2CCCCC2)CSC1c1ccccc1 (centres undefined)		> 100 µM
CC1(C)O[C@H]2OC(CO[Si](C)(C)C(C)(C)C)C(N=[N+]=[N-])[C@H]2O1 (some centres undefined)		36.1 µM
O=[N+]([O-])c1ccc(Cl)cc1N/N=C/c1ccnc2ccccc12		> 100 µM
CC(C)c1cc2c(cc1S(=O)(=O)O)[C@@]1(C)CCC[C@@](C)(C(=O)O)C1CC2 (some centres undefined)		> 100 µM
COc1ccc2cc1Oc1ccc(cc1)C[C@H]1c3cc(c(OC)cc3CCN1C)Oc1c(O)c(OC)cc3c1[C@H](C2)N(C)CC3		134 µM
C/C(=C\CBr)CCC(Br)C(C)(C)Br (centres undefined)		> 100 µM
Oc1ccc(Cc2cc(Cc3ccc(O)cc3)cc(Cc3ccc(O)cc3)c2)cc1		> 50 µM
CC(=O)c1c2c(c3ccccc3c1O)O[C@@H]1OCC[C@H]21		> 100 µM
C[C@]12CC[C@H](O)CC1=CC[C@@H]1[C@@H]2CC[C@]2(C)C(=N/N)/C(=N\O)C[C@@H]12		> 100 µM
CC(=O)Oc1cccc2c1C(=O)CCCC2		> 100 µM
O=C(c1ccccn1)C1(N2CCCCC2)CCCCC1		> 100 µM
CCN(CC)C(=S)N/N=C/c1cc([N+](=O)[O-])ccc1O		73 µM
Cc1ccc(NC(=O)c2ccc(OP(=O)(O)Nc3ccc(C)cc3)cc2)cc1		> 100 µM

Structure (SMILES)	GI50	TGI
Cc1ccc(NC(=O)CC2Sc3ccccc3NC2=O)cc1C (centres undefined)		> 100 µM
Cc1ccnc(NS(=O)(=O)c2ccc(N=[N+]=[N-])cc2)n1		> 100 µM
Cc1ccccc1C(=N)c1ccccc1Cc1cccc2ccccc12		> 100 µM
CCC(=O)NC(Nc1cc(C)on1)(C(F)(F)F)C(F)(F)F		> 100 µM
Cc1ccccc1OC(C)C(=O)NN1C(=O)CSC1c1ccccc1 (centres undefined)		> 100 µM
O=C1C=C[C@@H](COC2OC(CO)C(O)C(O)C2O)O1 (some centres undefined)	20.6 µM	53.2 µM
CC(C)=CCC[C@@H](C)c1c(O)c(O)c(C)c2nccnc12		> 100 µM
O=C(OCc1ccccc1)N1CCNCCN(C(=O)OCc2ccccc2)CCNCC1		> 100 µM
COC(=O)C1=C(C(=O)OC)SC(=C2SCSC3=C2SC(C(=O)OC)=C(C(=O)OC)C32SC3=C(CCCC3)S2)S1		> 100 µM
COc1nncc2[nH]c(-c3ccccc3)cc12		> 100 µM
O=S(=O)(c1ccccc1)c1cccc2c1NCCC2		> 100 µM
COP(=O)(OC)C1=c2c(C)noc2=C2C=COC2C1=O (centres undefined)		> 100 µM
CCOC(=O)N1CCN(Cc2cc(=O)n3ccc(C)cc3n2)CC1		> 100 µM
COc1cccc(C2SC(N)=Nc3c2c(C)nn3C(=O)c2ccccc2O)c1 (centres undefined)		> 10 µM
N#CC(NCc1cccc(CNC(C#N)c2ccccc2)c1)c1ccccc1 (centres undefined)		> 100 µM

Each compound was assayed on SK-OV-3 ovarian (assay: NCI tumour cell line growth inhibition, 48 h).

Structure (SMILES)	TGI
COc1ccc2[nH]cc(/C=C(/C)c3ccncc3)c2c1	35.6 µM
COC(=O)[C@@H](O)[C@](O)(CCC(C)C)C(=O)O[C@@H]1C(OC)=C[C@]23CCCN2CCc2cc4c(cc2[C@H]13)OCO4	8.12 µM
CCCCCC1=CC(=O)C1(Cl)Cl	85.4 µM
CC(=O)N1C(C(=O)NC2CCCCC2)CSC1c1ccccc1 (centres undefined)	> 100 µM
CC1(C)O[C@H]2OC(CO[Si](C)(C)C(C)(C)C)C(N=[N+]=[N-])[C@H]2O1 (some centres undefined)	28.3 µM
O=[N+]([O-])c1ccc(Cl)cc1N/N=C/c1ccnc2ccccc12	> 100 µM
CC(C)c1cc2c(cc1S(=O)(=O)O)[C@@]1(C)CCC[C@@](C)(C(=O)O)C1CC2 (some centres undefined)	> 100 µM
COc1ccc2cc1Oc1ccc(cc1)C[C@H]1c3cc(c(OC)cc3CCN1C)Oc1c(O)c(OC)cc3c1[C@H](C2)N(C)CC3	44.5 µM
C/C(=C\CBr)CCC(Br)C(C)(C)Br (centres undefined)	> 100 µM
Oc1ccc(Cc2cc(Cc3ccc(O)cc3)cc(Cc3ccc(O)cc3)c2)cc1	> 50 µM
CC(=O)c1c2c(c3ccccc3c1O)O[C@@H]1OCC[C@H]21	> 100 µM
C[C@]12CC[C@H](O)CC1=CC[C@@H]1[C@@H]2CC[C@]2(C)C(=N/N)/C(=N\O)C[C@@H]12	> 100 µM
CC(=O)Oc1cccc2c1C(=O)CCCC2	> 100 µM
O=C(c1ccccn1)C1(N2CCCCC2)CCCCC1	> 100 µM
CCN(CC)C(=S)N/N=C/c1cc([N+](=O)[O-])ccc1O	16.3 µM
